# Assay results: patent US11254640B2, “N-substituted indoles and other heterocycles for treating brain disorders” (The Regents of the University of California, priority 2019, dated 2022)
# Where two headings read alike, the source gives them in different places.
# Legend:
# Format in all cases: cell-based
# [1] = tested on: 5HT2A sensor; assay: 5HT2A sensor assay, antagonist mode (sLight1.3s HEK293T stable line); settings: relative to 5-HT at 100 nM; for 5HT2A Antagonist mean @ 100 nM (%): 100 nM compound; for 5HT2A Antagonist mean @ 10 μM (%): 10 μM compound; for 5HT2A Antagonist mean @ 100 μM (%): 100 μM compound
# Protocol: In some embodiments, the 5HT2A sensor assay is in an antagonist mode.
# (§1) 5HT2A Sensor Assays. HEK293T (ATCC) 5HT2A sensor stable line (sLight1.3s) was generated via lentiviral transduction of HIV-EF1α-sLight1.3 and propagated from a single colony. Lentivirus was produced using 2nd generation lentiviral plasmids pHIV-EF1α-sLight1.3, pHCMV-G, and pCMV-deltaR8.2.
# (§2) For the screening of the 41 compounds, sLight1.3s cells were plated in 96-well plates at a density of 40000 24-hours prior to imaging. On the day of imaging, compounds solubilized in DMSO were diluted from the 100 mM stock solution to working concentrations of 1 mM, 100 μM and 1 μM with a DMSO concentration of 1%. Immediately prior to imaging, cells growing in DMEM (Gibco) were washed 2× with HBSS (Gibco) and in agonist mode 180 μL of HBSS or in antagonist mode 160 μL of HBSS was added to each well after the final wash. For agonist mode, images were taken before and after the addition of the 20 μL compound working solution into the wells containing 180 μL HBSS. This produced final compound concentrations of 100 μM, 10 μM and 100 nM with a DMSO concentration of 0.1%. For antagonist mode, images were taken before and after addition of 20 μL of 900 nM 5-HT and again after 20 μL of the compound working solutions to produce final concentrations of 100 nM for 5HT and 100 μM, 10 μM and 100 nM for the compounds with a DMSO concentration of 0.1%. Each compound was tested in triplicates (3 wells) for each concentration (100 μM, 10 μM and 100 nM). Additionally, within each plate, 100 nM 5HT and 0.1% DMSO controls were also imaged.
# (§3) Imaging was performed using the Leica DMi8 inverted microscope with a 40× objective using the FITC preset with an excitation of 460 nm and emission of 512-542 nm. For each well, the cellular membrane where the 5HT2A sensor is targeted was autofocused using the adaptive focus controls and 5 images from different regions within the well were taken with each image processed from a 2×2 binning.
# (§4) For data processing, the membranes from each image was segmented and analyzed using a custom algorithm written in MATLAB producing a single raw fluorescence intensity value. For each well the 5 raw fluorescence intensity values generated from the 5 images were averaged and the change in fluorescence intensity (dFF) was calculated as: dFF=(Fsat−Fapo)/Fapo
# (§5) For both agonist and antagonist modes, the fluorescence intensity values before compound addition in HBSS only were used as the Fapo values while the fluorescence intensity values after compound addition were used as the Fsat values.
# (§6) For agonist mode, data are as percent activation relative to 5HT, where 0 is the average of the DMSO wells and 100 is the average of the 100 uM 5HT wells. For antagonist mode, the inactivation score was calculated as: Inactivation score=(dFFF(Compound+5HT)−dFF(5HT))/dFF(5HT)
# [2] = target: T1, 5HT2A (Homo sapiens, UniProt P28223); assay: Calcium flux assay (Calcium secondary messenger pathway); settings: agonist mode
# T1 construct: expressed in transfected cells
# Source text: Calcium Flux Assay. Calcium Secondary Messenger Pathway. The Calcium No Wash^PLUS assay monitors the activation of a GPCR (e.g., 5HT2A) via Gq secondary messenger signaling in a live cell, non-imaging assay format. Calcium mobilization in PathHunter® cell lines or other cell lines stably expressing Gq-coupled GPCRs (e.g., 5HT2A) is monitored using a calcium-sensitive dye that is loaded into cells. GPCR (e.g., 5HT2A) activation by a compound results in the release of calcium from intracellular stores and an increase in dye fluorescence that is measured in real-time. In some embodiments, the ability of a compound of the present invention to modulate 5-HT2A function is determined using a calcium flux assay. In some embodiments, a compound of the present invention activates a calcium flux assay.
# Calcium Secondary Messenger Pathway. Cell lines were expanded from freezer stocks according to standard procedures. Cells were seeded in a total volume of 20 μL into black-walled, clear-bottom, Poly-D-lysine coated 384-well microplates and incubated at 37° C. for the appropriate time prior to testing. Assays were performed in 1× Dye Loading Buffer consisting of 1× Dye, 1× Additive A and 2.5 mM Probenecid in HBSS/20 mM Hepes. Probenicid was prepared fresh. Cells were loaded with dye prior to testing. Media was aspirated from cells and replaced with 20 μL Dye Loading Buffer. Cells were incubated for 30-60 minutes at 37° C.
# For agonist determination, cells were incubated with sample to induce response. After dye loading, cells were removed from the incubator and 10 μL HBSS/20 mM Hepes was added. 3× vehicle was included in the buffer when performing agonist dose curves to define the EC80 for subsequent antagonist assays. Cells were incubated for 30 minutes at room temperature in the dark to equilibrate plate temperature. Intermediate dilution of sample stocks was performed to generate 4× sample in assay buffer. Compound agonist activity was measured on a FLIPR Tetra (MDS). Calcium mobilization was monitored for 2 minutes and 10 μL 4× sample in HBSS/20 mM Hepes was added to the cells 5 seconds into the assay.
# Compound activity was analyzed using CBIS data analysis suite (ChemInnovation, CA). For agonist mode assays, percentage activity is calculated using the following formula: % Activity=100%×(mean RFU of test sample−mean RFU of vehicle control)/(mean MAX RFU control ligand−mean RFU of vehicle control).
# [3] = tested on: 5HT2A sensor; assay: 5HT2A sensor assay, agonist mode (sLight1.3s HEK293T stable line); settings: percent relative to 5-HT at 100 uM; for 5HT2A Agonist mean @ 100 nM (%): 100 nM compound; for 5HT2A Agonist mean @ 10 μM (%): 10 μM compound; for 5HT2A Agonist mean @ 100 μM (%): 100 μM compound
# Protocol: In some embodiments, hallucinogenic potential of a compound of the present invention is determined in vitro. In some embodiments, hallucinogenic potential of a compound of the present invention is determined using a 5HT2A sensor assay. In some embodiments, the 5HT2A sensor assay is in an agonist mode or an antagonist mode. In some embodiments, the 5HT2A sensor assay is in an agonist mode.
# as §1, §2, §3, §4, §5, §6
# [4] = tested on: rat cortical neurons; assay: Neurite outgrowth assay; settings: Cortical neurone, 1 hour treatment at DIV 4, analysed DIV 7, fold vs DMSO control
# Source text: Neurite outgrowth assay. Changes in the pattern of neurite outgrowth have been implicated in neurodegenerative disorders as well as traumatic injuries. The discovery of new compounds that can positively affect neuritogenesis are important for developing new therapeutics for neurological diseases. Measurement of neurite outgrowth of rat cortical neurons using an automated image-based assay was used to determine the neuroplastic effects of the compounds of the present invention. In some embodiments, a compound of the present invention increases the pattern of neurite outgrowth. In some embodiments, a compound of the present invention increases neurite average length compared to a control. In some embodiments, a compound of the present invention increases neurite branch points compared to a control. In some embodiments, a compound of the present invention increases neurite average length and neurite branch points compared to a control.
# Neurite Outgrowth Assay. Rat cortical neurons (20,000 cells/well) were freshly isolated from embryonic day 18 rats and cultured in Neurobasal Medium (+B27). The cultured cells were plated in 96 well-plates (avoiding external wells). At DIV 4, the neurons were treated with compound or control (10 μM) for 1 hour followed by complete washout of the compound. At DIV 7, the neurons were analyzed. The experiments were performed in triplicate. Neurite outgrowth was measured analyzing the following parameters: Number of Cell Bodies, total neurite length (pixels), Root Count, Segments, Extremities Count and node points. Changes in the pattern of neurite outgrowth of the neurons were analyzed by immunocytochemistry against β-III-tubulin. Pictures were acquired by the CellInsight CX7 from Thermo Fisher and analyzed using its software. Results generated in the equipment were maximum neurite length, extremity count, root count, dendrite branch points, and total neurite length. The results were compared to DMSO control, representing the fold-change in neuronal outgrowth.
# [5] = read-out: Neurite Average Length @ 10 μM
# [6] = read-out: Neurite Branch Points: @ 10 μM
# T1 sequence (P28223 whole entry): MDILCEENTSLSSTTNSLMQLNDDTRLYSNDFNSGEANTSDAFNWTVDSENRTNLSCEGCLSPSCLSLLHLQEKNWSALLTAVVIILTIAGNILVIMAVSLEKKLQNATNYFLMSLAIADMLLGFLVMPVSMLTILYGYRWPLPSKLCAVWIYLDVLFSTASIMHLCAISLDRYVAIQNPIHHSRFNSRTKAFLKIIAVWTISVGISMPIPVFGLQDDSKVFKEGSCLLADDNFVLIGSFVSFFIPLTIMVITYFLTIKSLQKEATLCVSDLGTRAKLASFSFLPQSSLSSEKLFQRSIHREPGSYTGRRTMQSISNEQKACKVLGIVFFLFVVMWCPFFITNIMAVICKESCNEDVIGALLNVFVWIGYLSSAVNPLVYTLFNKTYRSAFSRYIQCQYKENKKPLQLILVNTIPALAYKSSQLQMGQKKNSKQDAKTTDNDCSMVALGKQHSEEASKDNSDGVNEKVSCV
structure (smiles),measurement,setting,value
"Clc1ccc2c(ccn2CCN2CCCC2)c1 [Example 47, 5-chloro-1-(2-(pyrrolidin-1-yl)ethyl)-1H-indole]",5HT2A Antagonist mean @ 100 nM (%),[1],A (inhibits 5HT response by >100%)
same,5HT2A Antagonist mean @ 10 μM (%),[1],A (inhibits 5HT response by >100%)
same,5HT2A Antagonist mean @ 100 μM (%),[1],A (inhibits 5HT response by >100%)
same,EC50,[2],< 10 µM
same,5HT2A Agonist mean @ 100 nM (%),[3],B (does not activate 5HT2A sensor assay in agonist mode)
same,5HT2A Agonist mean @ 10 μM (%),[3],B (does not activate 5HT2A sensor assay in agonist mode)
same,5HT2A Agonist mean @ 100 μM (%),[3],B (does not activate 5HT2A sensor assay in agonist mode)
same,fold induction at 10 µM,[4]; [5],1.5 to 3
same,fold induction at 10 µM,[4]; [6],> 3
"Clc1ccc2c(ccn2CCN2CCCCC2)c1 [Example 48, 5-chloro-1-(2-(piperidin-1-yl)ethyl)-1H-indole]",5HT2A Antagonist mean @ 100 nM (%),[1],A (inhibits 5HT response by >100%)
same,5HT2A Antagonist mean @ 10 μM (%),[1],A (inhibits 5HT response by >100%)
same,5HT2A Antagonist mean @ 100 μM (%),[1],A (inhibits 5HT response by >100%)
same,EC50,[2],> 10 µM
same,5HT2A Agonist mean @ 100 nM (%),[3],B (does not activate 5HT2A sensor assay in agonist mode)
same,5HT2A Agonist mean @ 10 μM (%),[3],B (does not activate 5HT2A sensor assay in agonist mode)
same,5HT2A Agonist mean @ 100 μM (%),[3],B (does not activate 5HT2A sensor assay in agonist mode)
same,fold induction at 10 µM,[4]; [5],1.5 to 3
same,fold induction at 10 µM,[4]; [6],1.5 to 3
"Clc1ccc2c(ccn2CCN2CCOCC2)c1 [Example 49, 4-(2-(5-chloro-1H-indol-1-yl)ethyl)morpholine]",5HT2A Antagonist mean @ 100 nM (%),[1],A (inhibits 5HT response by >100%)
same,5HT2A Antagonist mean @ 10 μM (%),[1],B (inhibits 5HT response by 75% to 100%)
same,5HT2A Antagonist mean @ 100 μM (%),[1],C (inhibits 5HT response by <75%)
same,EC50,[2],> 10 µM
same,5HT2A Agonist mean @ 100 nM (%),[3],B (does not activate 5HT2A sensor assay in agonist mode)
same,5HT2A Agonist mean @ 10 μM (%),[3],B (does not activate 5HT2A sensor assay in agonist mode)
same,5HT2A Agonist mean @ 100 μM (%),[3],A (activates 5HT2A sensor assay in agonist mode)
same,fold induction at 10 µM,[4]; [5],1.5 to 3
same,fold induction at 10 µM,[4]; [6],1.5 to 3
"FC(F)(F)Oc1ccc2c(ccn2CCN2CCCC2)c1 [Example 50, 1-(2-(pyrrolidin-1-yl)ethyl)-5-(trifluoromethoxy)-1H-indole]",5HT2A Antagonist mean @ 100 nM (%),[1],A (inhibits 5HT response by >100%)
same,5HT2A Antagonist mean @ 10 μM (%),[1],B (inhibits 5HT response by 75% to 100%)
same,5HT2A Antagonist mean @ 100 μM (%),[1],A (inhibits 5HT response by >100%)
same,EC50,[2],> 10 µM
same,5HT2A Agonist mean @ 100 nM (%),[3],B (does not activate 5HT2A sensor assay in agonist mode)
same,5HT2A Agonist mean @ 10 μM (%),[3],B (does not activate 5HT2A sensor assay in agonist mode)
same,5HT2A Agonist mean @ 100 μM (%),[3],A (activates 5HT2A sensor assay in agonist mode)
same,fold induction at 10 µM,[4]; [5],1.5 to 3
same,fold induction at 10 µM,[4]; [6],1.5 to 3
